# Tested on: bifidobacteria (B. adolescentis and B. longum)
# Assay: Fecal fermentations simulating the distal colon of elderly (microMatrix, shotgun metagenomics)
# Assay type: cell-based, human (pool of fecal material of healthy 70+ human subjects)
# Conditions: oligosaccharides at 0.5 wt % final concentration, 7 hours of fermentation, pH 6.8, 37° C., compared to the blanc; FIG. 1
# Method: Fecal fermentations were performed in a 24 well plate using the microMatrix™ (Applikon Biotechnology) as described in M. M. O'Donnell et al., Front. Microbiol., vol. 9, Aug. 10, 2018, article 1844. The wells were filled in the anaerobic chamber with medium (composition: see Table 1) to which the oligosaccharides GOS (Biotis™ GOS ex-FrieslandCampina), 2′-FL (Aequival™ 2′-FL, ex-FrieslandCampina), or mixtures thereof were added at a final concentration of 0 (blanc) or 0.5 wt % (every condition in duplicate). The plate was put in the microMatrix™ for about 20 minutes to reduce the dissolved oxygen concentration to below 5% and to increase the temperature of the medium to 37° C. After these 20 minutes, the plate was inoculated with a pool of fecal material of healthy 70+ human subjects and fermentations were started. During the fermentations, the pH of was controlled at pH 6.8 with a dead zone of 0.1 using ammonium gas and CO2. The plates were orbitally shaken at 300 rpm. Mixed gas (CO2/H2/N2: 10/5/85) was used to keep the cultures anaerobic during fermentation. After 7 hours of fermentation a sample of 1 ml was taken. Fecal samples of eight healthy elderly were included in the pool. […]
substance,measurement,value
2′-fucosyllactose [2′-FL],"relative abundance of B. adolescentis and B. longum and their combined amount, relative to total bacteria content",increased

# — patent US20240197762A1, “NUTRITIONAL COMPOSITION FOR STIMULATIONG BIFIDOBACTERIA” (FrieslandCampina Nederland B.V., priority 2021, published 2024)
